The results in this text go back to ChEMBL document CHEMBL4842378, “An Enantiodefined Conformationally Constrained Fatty Acid Mimetic and Potent Inhibitor of ToxT” (ACS Med Chem Lett, 2021).

Structures are written as SMILES. Active and inactive are the calls of the source. The rule behind the calls is not given here.

For assay [1], the target named is T1, TCP pilus virulence regulatory protein (Vibrio cholerae serotype O1 (strain ATCC 39541 / Classical Ogawa 395 /O395)) (UniProt A5F384).
T1 sequence (whole entry): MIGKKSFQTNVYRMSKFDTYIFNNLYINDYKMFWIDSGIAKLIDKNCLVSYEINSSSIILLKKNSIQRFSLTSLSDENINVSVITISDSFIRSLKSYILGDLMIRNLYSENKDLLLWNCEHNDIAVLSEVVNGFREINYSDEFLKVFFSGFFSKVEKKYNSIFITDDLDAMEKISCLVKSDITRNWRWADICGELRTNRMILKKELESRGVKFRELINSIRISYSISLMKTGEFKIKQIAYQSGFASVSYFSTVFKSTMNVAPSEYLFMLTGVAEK
The assay can be described thus: Inhibition of wild type ToxT in Vibrio cholerae El Tor strain C6706 at 500 nM measured after 3.5 hrs by beta-galactosidase assay relative to control.

Assay [2] addresses T1, TCP pilus virulence regulatory protein (Vibrio cholerae serotype O1 (strain ATCC 39541 / Classical Ogawa 395 /O395)). As to the kind of experiment: Inhibition of ToxT in Vibrio cholerae at upto 5 uM measured after 3.5 hrs by beta-galactosidase assay relative to control. To be noted: dose microM <=5, time 3.5 hrs.
The target is the same in assay [3]. As to the kind of experiment: Inhibition of ToxT in delattoxT tcpA-linked LacZ reporter gene harboring Vibrio cholerae at 500 nM measured after 3.5 hrs by beta-galactosidase assay relative to control.

As a reminder, the inhibition is how much of the control response was suppressed. As for `CCCCC1=C2CCC[C@@]2(C)CC[C@@H]1CC/C=C/C(=O)O`, the inhibition in assay [1] was 25%.

For `CCCCC1=C2CCC[C@]2(C)CC[C@H]1CCC(=O)O`, in assay [1], the inhibition stood at 50%.

On to `CCCCC1=C2CCC[C@@]2(C)CC[C@@H]1CCC(=O)O`, for which, in assay [1], the inhibition is 80%.

Turning to `CCCC1=C2CCC[C@@]2(C)CC[C@@H]1CCC(=O)O`, the inhibition in assay [1] turned out to be 60%.

As to `CCCC1=C2CCC[C@@]2(C)CC[C@@H]1CC/C=C/C(=O)O`, the inhibition entry in assay [1] was “Active”.

Take `O=C(O)CCCN1C(=O)c2cccc3cccc(c23)C1=O`: the inhibition in assay [2] is 20%.

Regarding `Cc1cccc2c1C(CCC(=O)O)CCC2` (racemic), the results for the inhibition in assay [3] and in assay [1] were 80% and 45%, respectively.
